What all share (set-up): scale not given: the % may be the effect or the level left
Experiment [1] concerns the target Tyrosine-protein kinase SYK (Homo sapiens) (UniProt P43405). The experiment in a line: Inhibition of human SYK (1 to 635 residues) assessed as enzyme activity at 1 uM using 33P ATP by radioactive filter binding assay.
Experiment [2] deals with T1, MAP kinase-activated protein kinase 5 (Homo sapiens) (UniProt Q8IW41).
T1 sequence (whole entry): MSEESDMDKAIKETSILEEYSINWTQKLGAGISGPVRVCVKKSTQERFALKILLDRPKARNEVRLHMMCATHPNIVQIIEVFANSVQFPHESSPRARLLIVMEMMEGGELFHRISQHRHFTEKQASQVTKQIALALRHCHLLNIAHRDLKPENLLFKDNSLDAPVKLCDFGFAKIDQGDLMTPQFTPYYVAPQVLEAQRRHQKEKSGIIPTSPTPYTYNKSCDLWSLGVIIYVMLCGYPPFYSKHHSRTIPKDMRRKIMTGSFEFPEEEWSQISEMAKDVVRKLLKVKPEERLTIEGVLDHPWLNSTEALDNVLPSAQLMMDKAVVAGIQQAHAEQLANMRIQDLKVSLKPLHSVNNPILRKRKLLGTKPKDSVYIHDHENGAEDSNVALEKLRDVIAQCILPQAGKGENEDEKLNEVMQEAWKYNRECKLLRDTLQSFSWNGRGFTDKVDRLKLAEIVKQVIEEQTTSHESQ
The experiment in a line: Inhibition of human PRAK (1 to 471 residues) assessed as enzyme activity at 1 uM using 33P ATP by radioactive filter binding assay.

In experiment [3] the target is Casein kinase I isoform delta (Homo sapiens) (UniProt P48730). The experiment can be described thus: Inhibition of human CK1 delta (1 to 415 residues) assessed as enzyme activity at 1 uM using 33P ATP by radioactive filter binding assay.
Chain of Casein kinase I isoform delta (Homo sapiens) (P48730 whole entry, looked up, the tested form may be a part, canonical isoform): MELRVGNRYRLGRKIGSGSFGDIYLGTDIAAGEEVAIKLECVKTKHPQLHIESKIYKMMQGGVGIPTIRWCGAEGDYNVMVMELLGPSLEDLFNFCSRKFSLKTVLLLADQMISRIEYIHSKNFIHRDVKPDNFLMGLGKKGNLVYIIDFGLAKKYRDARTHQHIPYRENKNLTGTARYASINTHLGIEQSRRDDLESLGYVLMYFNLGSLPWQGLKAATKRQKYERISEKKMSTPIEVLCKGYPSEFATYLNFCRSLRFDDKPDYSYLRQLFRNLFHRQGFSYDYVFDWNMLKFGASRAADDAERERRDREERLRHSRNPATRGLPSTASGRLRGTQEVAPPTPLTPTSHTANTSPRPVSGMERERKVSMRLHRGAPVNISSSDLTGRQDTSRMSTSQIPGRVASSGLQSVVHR
Experiment [4] addresses Serine/threonine-protein kinase Chk2 (Homo sapiens) (UniProt O96017). The experiment can be described thus: Inhibition of human CHK2 (5 to 543 residues) assessed as enzyme activity at 1 uM using 33P ATP by radioactive filter binding assay.
Experiment [5] has as its target Ribosomal protein S6 kinase beta-1 (Homo sapiens) (UniProt P23443). The experiment in a line: Inhibition of human S6K1 (1 to 421 residues) assessed as enzyme activity at 1 uM using 33P ATP by radioactive filter binding assay.
The target in experiment [6] is T2, Mitogen-activated protein kinase 12 (Homo sapiens) (UniProt P53778).
T2 sequence (whole entry): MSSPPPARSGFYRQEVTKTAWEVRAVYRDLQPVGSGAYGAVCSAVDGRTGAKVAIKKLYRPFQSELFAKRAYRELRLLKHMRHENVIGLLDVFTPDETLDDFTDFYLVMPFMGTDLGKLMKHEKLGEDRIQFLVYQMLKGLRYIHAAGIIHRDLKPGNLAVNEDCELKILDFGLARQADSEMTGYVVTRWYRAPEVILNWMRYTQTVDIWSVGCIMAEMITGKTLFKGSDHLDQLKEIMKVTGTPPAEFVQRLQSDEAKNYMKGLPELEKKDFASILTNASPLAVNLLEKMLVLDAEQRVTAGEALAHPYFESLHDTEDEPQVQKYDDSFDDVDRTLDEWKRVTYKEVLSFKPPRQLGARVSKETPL
The experiment in a line: Inhibition of SAPK3 (unknown origin) assessed as enzyme activity at 1 uM using 33P ATP by radioactive filter binding assay.

Experiment [7] concerns the target Tyrosine-protein kinase Yes (Homo sapiens) (UniProt P07947). The experiment in a line: Inhibition of human YES1 (1 to 543 residues) assessed as enzyme activity at 1 uM using 33P ATP by radioactive filter binding assay.
Experiment [8] addresses Vascular endothelial growth factor receptor (Homo sapiens) (UniProt P17948+P35916+P35968). The experiment in a line: Inhibition of human VEGFR assessed as enzyme activity at 1 uM using 33P ATP by radioactive filter binding assay. The experiment is classed as protein assay.
In experiment [9] the target is Rho-associated protein kinase 2 (Rattus norvegicus) (UniProt Q62868). The experiment in a line: Inhibition of rat ROCK2 (2 to 543 residues) assessed as enzyme activity at 1 uM using 33P ATP by radioactive filter binding assay.
Chain of Rho-associated protein kinase 2 (Rattus norvegicus) (Q62868 whole entry, looked up, the tested form may be a part): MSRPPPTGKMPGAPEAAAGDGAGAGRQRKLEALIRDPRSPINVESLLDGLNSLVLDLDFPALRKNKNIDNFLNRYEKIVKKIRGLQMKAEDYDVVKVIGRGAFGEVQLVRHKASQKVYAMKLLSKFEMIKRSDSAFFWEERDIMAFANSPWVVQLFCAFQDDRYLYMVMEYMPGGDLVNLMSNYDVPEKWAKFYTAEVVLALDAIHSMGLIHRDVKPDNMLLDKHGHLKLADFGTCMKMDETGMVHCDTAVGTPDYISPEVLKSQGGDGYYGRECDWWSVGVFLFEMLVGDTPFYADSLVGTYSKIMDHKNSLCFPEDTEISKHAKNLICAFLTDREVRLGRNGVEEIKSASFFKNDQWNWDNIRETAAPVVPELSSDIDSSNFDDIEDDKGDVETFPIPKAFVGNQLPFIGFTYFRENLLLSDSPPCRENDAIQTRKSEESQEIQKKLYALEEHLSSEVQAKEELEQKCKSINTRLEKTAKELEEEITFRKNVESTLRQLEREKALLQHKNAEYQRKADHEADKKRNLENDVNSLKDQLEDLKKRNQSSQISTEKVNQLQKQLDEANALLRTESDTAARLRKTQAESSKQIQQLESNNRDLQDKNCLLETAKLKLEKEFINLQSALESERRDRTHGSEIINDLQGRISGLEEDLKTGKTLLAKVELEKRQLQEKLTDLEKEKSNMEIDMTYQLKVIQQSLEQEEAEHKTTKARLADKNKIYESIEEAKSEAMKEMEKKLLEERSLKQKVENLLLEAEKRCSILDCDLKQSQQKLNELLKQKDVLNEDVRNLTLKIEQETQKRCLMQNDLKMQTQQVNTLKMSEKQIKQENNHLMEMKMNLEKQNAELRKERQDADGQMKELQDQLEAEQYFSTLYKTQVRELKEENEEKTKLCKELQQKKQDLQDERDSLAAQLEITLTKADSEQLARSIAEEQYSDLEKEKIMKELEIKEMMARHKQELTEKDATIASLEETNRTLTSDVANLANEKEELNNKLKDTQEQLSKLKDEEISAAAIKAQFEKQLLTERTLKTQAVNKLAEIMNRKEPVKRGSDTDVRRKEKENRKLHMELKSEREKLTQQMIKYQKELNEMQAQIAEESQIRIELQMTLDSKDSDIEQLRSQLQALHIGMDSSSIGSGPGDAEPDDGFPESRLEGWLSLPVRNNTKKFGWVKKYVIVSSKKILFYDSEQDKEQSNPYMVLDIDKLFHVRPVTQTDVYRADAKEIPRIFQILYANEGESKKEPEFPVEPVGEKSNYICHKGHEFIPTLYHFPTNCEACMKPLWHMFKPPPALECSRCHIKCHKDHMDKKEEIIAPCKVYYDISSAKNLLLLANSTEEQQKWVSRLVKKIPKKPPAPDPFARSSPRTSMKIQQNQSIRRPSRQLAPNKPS
The target of experiment [10] is T3, Lymphokine-activated killer T-cell-originated protein kinase (Homo sapiens) (UniProt Q96KB5).
T3 sequence (whole entry): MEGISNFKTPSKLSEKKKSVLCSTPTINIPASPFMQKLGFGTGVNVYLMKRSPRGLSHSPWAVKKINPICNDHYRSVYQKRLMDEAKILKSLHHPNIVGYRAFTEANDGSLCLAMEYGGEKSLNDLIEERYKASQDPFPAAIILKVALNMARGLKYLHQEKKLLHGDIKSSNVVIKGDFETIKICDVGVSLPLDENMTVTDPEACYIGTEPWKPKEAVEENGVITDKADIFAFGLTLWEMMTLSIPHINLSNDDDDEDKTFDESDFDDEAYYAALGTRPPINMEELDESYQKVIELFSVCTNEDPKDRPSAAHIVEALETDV
The experiment in a line: Inhibition of human PBK (2 to 297 residues) assessed as enzyme activity at 1 uM using 33P ATP by radioactive filter binding assay.

The target in experiment [11] is Dual specificity tyrosine-phosphorylation-regulated kinase 1A (Homo sapiens) (UniProt Q13627). The experiment in a line: Inhibition of human DYRK1A (1 to 502 residues) assessed as enzyme activity at 1 uM using 33P ATP by radioactive filter binding assay.
In experiment [12] the target is MAP kinase-interacting serine/threonine-protein kinase 2 (Homo sapiens) (UniProt Q9HBH9). The experiment in a line: Inhibition of human MNK2alpha (2 to 465 residues) assessed as enzyme activity at 1 uM using 33P ATP by radioactive filter binding assay.
Chain of MAP kinase-interacting serine/threonine-protein kinase 2 (Homo sapiens) (Q9HBH9 whole entry, looked up, the tested form may be a part): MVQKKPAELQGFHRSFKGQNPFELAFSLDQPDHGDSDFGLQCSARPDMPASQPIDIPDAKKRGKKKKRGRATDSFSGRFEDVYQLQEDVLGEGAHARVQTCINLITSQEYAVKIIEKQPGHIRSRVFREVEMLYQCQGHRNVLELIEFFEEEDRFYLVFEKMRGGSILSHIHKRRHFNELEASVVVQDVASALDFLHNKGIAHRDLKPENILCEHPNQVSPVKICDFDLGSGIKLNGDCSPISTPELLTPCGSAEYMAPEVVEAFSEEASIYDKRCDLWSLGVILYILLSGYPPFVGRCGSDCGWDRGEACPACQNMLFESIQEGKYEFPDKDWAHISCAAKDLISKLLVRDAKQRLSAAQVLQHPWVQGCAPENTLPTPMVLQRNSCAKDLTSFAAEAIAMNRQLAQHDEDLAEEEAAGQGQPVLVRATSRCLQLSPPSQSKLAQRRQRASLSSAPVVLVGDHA
The target of experiment [13] is Serine/threonine-protein kinase PAK 6 (Homo sapiens) (UniProt Q9NQU5). The experiment can be described thus: Inhibition of human PAK6 (2 to 681 residues) assessed as enzyme activity at 1 uM using 33P ATP by radioactive filter binding assay.
Chain of Serine/threonine-protein kinase PAK 6 (Homo sapiens) (Q9NQU5 whole entry, looked up, the tested form may be a part): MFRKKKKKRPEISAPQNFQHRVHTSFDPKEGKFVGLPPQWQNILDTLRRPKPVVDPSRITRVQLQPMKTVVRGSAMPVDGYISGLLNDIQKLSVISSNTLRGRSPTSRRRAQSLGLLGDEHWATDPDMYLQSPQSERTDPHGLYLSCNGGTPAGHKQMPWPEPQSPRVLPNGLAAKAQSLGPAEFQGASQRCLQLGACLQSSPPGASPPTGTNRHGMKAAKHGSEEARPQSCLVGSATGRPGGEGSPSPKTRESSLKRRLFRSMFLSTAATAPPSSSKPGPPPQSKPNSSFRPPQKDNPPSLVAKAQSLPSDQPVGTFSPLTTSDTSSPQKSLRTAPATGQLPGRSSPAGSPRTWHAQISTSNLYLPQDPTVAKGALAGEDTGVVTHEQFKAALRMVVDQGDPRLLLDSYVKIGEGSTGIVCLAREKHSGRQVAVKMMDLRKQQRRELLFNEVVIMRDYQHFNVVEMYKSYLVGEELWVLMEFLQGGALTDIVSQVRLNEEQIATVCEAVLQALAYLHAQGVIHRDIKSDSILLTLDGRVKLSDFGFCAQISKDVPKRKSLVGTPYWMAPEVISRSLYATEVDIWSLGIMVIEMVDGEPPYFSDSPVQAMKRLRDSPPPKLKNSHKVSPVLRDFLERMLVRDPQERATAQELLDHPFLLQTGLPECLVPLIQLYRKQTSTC
In experiment [14] the target is T4, Serine/threonine-protein kinase Chk1 (Homo sapiens) (UniProt O14757).
T4 sequence (whole entry): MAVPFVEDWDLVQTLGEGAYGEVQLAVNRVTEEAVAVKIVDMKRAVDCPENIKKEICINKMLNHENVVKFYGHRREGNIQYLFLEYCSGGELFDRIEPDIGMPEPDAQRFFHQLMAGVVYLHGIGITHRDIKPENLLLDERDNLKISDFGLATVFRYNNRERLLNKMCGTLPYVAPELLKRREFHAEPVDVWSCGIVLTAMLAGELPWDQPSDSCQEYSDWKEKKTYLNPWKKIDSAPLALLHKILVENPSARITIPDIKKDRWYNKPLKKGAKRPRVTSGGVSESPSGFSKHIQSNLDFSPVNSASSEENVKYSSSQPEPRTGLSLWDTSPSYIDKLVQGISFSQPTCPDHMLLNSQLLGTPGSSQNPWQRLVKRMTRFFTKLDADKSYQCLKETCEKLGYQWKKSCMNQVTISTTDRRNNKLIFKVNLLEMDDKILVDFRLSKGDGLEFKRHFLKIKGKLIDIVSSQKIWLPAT
The experiment can be described thus: Inhibition of human CHK1 (1 to 476 residues) assessed as enzyme activity at 1 uM using 33P ATP by radioactive filter binding assay.

This passage reports Activity results from ChEMBL document CHEMBL3813616, “Discovery of novel 7-azaindoles as PDK1 inhibitors” (Bioorg Med Chem Lett, 2016).

Chain of Tyrosine-protein kinase Yes (Homo sapiens) (P07947 2-543 limits assumed): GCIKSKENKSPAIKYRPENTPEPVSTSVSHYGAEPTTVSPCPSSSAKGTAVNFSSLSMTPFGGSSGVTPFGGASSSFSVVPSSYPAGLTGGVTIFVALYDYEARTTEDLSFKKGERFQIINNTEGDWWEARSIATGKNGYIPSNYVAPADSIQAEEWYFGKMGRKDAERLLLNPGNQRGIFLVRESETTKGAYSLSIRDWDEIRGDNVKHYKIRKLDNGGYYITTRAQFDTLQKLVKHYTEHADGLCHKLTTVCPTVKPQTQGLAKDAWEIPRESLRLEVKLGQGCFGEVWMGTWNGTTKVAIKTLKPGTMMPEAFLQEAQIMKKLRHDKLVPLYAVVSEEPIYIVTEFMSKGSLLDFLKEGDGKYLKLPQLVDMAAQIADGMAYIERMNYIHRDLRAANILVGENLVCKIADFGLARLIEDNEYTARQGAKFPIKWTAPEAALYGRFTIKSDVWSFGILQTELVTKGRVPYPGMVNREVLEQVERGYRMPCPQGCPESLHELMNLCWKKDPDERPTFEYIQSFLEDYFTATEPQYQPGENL
Chain of Ribosomal protein S6 kinase beta-1 (Homo sapiens) (P23443 whole entry, looked up, the tested form may be a part): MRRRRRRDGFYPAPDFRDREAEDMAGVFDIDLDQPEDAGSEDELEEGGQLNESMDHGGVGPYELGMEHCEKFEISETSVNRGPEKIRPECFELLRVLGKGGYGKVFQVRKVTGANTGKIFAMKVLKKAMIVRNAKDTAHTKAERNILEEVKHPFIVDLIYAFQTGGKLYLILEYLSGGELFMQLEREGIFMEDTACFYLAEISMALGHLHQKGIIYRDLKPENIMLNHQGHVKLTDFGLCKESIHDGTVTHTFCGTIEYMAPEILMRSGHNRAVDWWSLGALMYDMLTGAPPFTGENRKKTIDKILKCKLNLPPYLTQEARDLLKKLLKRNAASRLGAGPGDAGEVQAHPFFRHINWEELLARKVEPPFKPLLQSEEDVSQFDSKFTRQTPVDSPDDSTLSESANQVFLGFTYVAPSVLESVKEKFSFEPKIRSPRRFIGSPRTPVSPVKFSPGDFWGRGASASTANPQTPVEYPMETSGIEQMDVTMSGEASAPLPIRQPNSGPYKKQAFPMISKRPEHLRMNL
Chain of Serine/threonine-protein kinase Chk2 (Homo sapiens) (O96017 whole entry, the tested form may be a part): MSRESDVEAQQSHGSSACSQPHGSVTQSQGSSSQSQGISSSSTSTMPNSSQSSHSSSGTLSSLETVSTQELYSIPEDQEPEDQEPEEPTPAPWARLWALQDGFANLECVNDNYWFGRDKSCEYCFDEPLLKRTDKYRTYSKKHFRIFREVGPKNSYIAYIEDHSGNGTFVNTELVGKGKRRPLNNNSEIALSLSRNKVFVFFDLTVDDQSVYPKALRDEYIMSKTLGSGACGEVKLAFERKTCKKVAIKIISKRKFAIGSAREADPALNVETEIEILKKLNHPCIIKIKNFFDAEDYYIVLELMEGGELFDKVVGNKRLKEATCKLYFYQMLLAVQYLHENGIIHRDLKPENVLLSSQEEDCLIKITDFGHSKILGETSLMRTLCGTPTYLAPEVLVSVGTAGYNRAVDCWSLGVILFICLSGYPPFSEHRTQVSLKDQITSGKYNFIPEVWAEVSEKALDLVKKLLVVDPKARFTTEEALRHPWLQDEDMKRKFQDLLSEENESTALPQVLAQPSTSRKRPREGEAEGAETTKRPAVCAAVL

`CCCCc1cc(-c2c[nH]c3ncc(-c4cnn(C5CCNCC5)c4)cc23)nc(N)n1`: the Activity is -69% in experiment [1]; -10% in experiment [2]; -72% in experiment [3]; -92% in experiment [4]; -84% in [5]; -42% in experiment [6]. In addition, the Activity was -78% in experiment [7]; -97% in experiment [8]; -80% in experiment [9]; -96% in experiment [10]; -92% in [11]; -42% in [12]. Also, the Activity in experiment [13] was -50%; in experiment [14], -79%.

On to `CCc1cc(-c2c[nH]c3ncc(-c4cnn(C5CCNCC5)c4)cc23)nc(N)n1`, for which the Activity in experiment [2] is 4%; in experiment [3] it was -67%; in experiment [4], -81%; in [5], -66%; in [6], -45%; in [7], -46%. For the same molecule, the Activity was -97% in experiment [8]; -65% in experiment [9]; -95% in [10]; -94% in [11]; -49% in experiment [12]; -5% in [13]. For the same molecule, the Activity in experiment [14] was -89%.

On to `Nc1nccc(-c2c[nH]c3ncccc23)n1` [MERIOLIN 1], for which the Activity is 12% in experiment [1]; -17% in experiment [2]; -74% in [3]; -37% in [4]; -71% in [5]; -59% in experiment [6]. Moreover, the Activity in experiment [7] was 2%; in experiment [8], -44%; in [9], -97%; in [10] it was -40%; in experiment [11], -95%; in experiment [12] it was -35%. The results for the Activity in experiment [13] and in [14] were -27% and -6%, respectively.

For the molecule `CCCCc1cc(-c2c[nH]c3ncccc23)nc(N)n1`, the Activity in experiment [1] is -9%; in [2], 2%; in experiment [3] it was -26%; in experiment [4] it was -44%; in [5], -77%; in experiment [6] it was -57%. In addition, the Activity in experiment [7] was -21%; in experiment [9], -93%; in [10], -21%; in experiment [11], -90%; in [12], -15%; in experiment [13], 3%. Moreover, the Activity in experiment [14] is -2%.
